pIC50: −log10 of the molar value.
Tests used:
HIF-2α [1] = target: T1, HIF-2α (Homo sapiens, UniProt Q99814); experiment: HIF-2α Luciferase Reporter Assay (serum free) in HIF-Luc-786-0 cells; format: cell-based; conditions: Opti-MEM, 786-0 reporter cells, 20 hours incubation
In short: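 786-0 cells stably transduced with HIF luciferase reporter, 20,000 cells/well in serum-free Opti-MEM, compounds (50 uM downward, 1% DMSO) 20 h at 37 °C. ONE-Glo luminescence normalized to DMSO and no-cell controls; IC50 from four-parameter fit.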

HIF-2α [2] = target: T1, HIF-2α; experiment: HIF-2α Luciferase Reporter Assay (serum), HRE-luciferase 786-0 cells in 100% human serum; format: cell-based; conditions: for pIC50: 100% human serum, 786-0 reporter cells, overnight incubation, read-out: Serum Potency; for Serum Shift (approximate): ratio of IC50 in 100% serum to IC50 in serum free conditions
In short: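 786-0 cells stably expressing an HRE-luciferase reporter were plated and rested 3 h. They were then treated overnight at 37 °C with compound diluted in 100% human serum. Serum was replaced with Opti-MEM, ONE-Glo luminescence was read, and IC50 came from a 4-parameter logistic fit.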

T1 sequence (Q99814 whole entry): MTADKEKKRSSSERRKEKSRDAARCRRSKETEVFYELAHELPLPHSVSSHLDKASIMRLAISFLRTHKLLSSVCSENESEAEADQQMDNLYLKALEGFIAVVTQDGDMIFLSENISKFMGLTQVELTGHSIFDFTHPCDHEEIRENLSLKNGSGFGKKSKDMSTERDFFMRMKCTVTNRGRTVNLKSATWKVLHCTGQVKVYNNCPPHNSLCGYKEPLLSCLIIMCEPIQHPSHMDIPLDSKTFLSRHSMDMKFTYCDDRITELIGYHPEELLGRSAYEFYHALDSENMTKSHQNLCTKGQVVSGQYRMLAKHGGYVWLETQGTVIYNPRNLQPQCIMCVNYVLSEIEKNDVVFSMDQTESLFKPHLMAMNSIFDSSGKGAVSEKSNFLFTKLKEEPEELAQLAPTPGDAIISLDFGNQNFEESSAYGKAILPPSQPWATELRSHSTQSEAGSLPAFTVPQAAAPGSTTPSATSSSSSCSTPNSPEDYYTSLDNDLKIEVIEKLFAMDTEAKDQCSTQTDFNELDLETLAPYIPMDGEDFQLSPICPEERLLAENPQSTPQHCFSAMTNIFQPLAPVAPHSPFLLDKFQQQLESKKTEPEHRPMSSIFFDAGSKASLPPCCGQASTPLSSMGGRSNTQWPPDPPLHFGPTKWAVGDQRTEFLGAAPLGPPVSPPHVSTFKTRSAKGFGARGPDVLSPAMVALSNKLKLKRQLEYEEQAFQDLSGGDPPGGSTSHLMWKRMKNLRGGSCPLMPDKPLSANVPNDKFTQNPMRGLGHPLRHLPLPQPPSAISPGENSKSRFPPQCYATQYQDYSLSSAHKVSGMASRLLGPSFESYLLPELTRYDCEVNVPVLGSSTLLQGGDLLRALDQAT

For `O[C@H]1c2c(C(F)(F)F)nn([C@@H]3CC[C@@H](F)[C@@H](F)C3)c2[C@@H](F)[C@H]1F` (single isomer, unassigned) [141/142 DIAST-1], the pIC50 (HIF-2α [1]) was 6.00 to 7.00, the pIC50 (HIF-2α [2]) was 6.00 to 7.00 and the “Serum Shift (approximate)” value (HIF-2α [2]) was 4.
With `O[C@H]1c2c(C(F)(F)F)nn([C@@H]3CC[C@@H](F)[C@@H](F)C3)c2CC1(F)F` (single isomer, unassigned) [72/73 DIAST-1] the pIC50 (HIF-2α [1]) was over 7.00, the pIC50 (HIF-2α [2]) was 6.00 to 7.00 and the “Serum Shift (approximate)” value (HIF-2α [2]) was 8.
With `O[C@H]1c2c(C(F)(F)F)nn([C@H]3C[C@H](COC(F)F)C3)c2CCC1(F)F` [Example 104, (4S)-1-[3-(difluoromethoxymethyl)cyclobutyl]-5,5-difluoro-3-(trifluoromethyl)-6,7-dihydro-4H-indazol-4-ol] the pIC50 (HIF-2α [1]) was 6.00 to 7.00, the pIC50 (HIF-2α [2]) was under 6.00 and the “Serum Shift (approximate)” value (HIF-2α [2]) was 20.
For `O[C@H]1c2c(C(F)(F)F)nn(C3CC[C@H](F)[C@H](F)C3)c2CC1(F)F` (single isomer, unassigned) [72/73 DIAST-2], the pIC50 (HIF-2α [1]) was over 7.00, the pIC50 (HIF-2α [2]) was 6.00 to 7.00 and the “Serum Shift (approximate)” value (HIF-2α [2]) was 3.
In the case of `O[C@H]1c2c(C(F)(F)F)nn(C3CC4(C3)CC(F)(F)C4)c2CC1(F)F` [Example 66, (4S)-1-{6,6-difluorospiro[3.3]heptan-2-yl}-5,5-difluoro-3-(trifluoromethyl)-4,6-dihydrocyclopenta[c]pyrazol-4-ol], the pIC50 (HIF-2α [1]) was over 7.00, the pIC50 (HIF-2α [2]) was 6.00 to 7.00 and the “Serum Shift (approximate)” value (HIF-2α [2]) was 6.
For `O[C@H]1c2c(C(F)(F)F)nn(CCCOC(F)(F)F)c2C[C@H]1F` [Example 62, (4S,5R)-5-fluoro-1-[3-(trifluoromethoxy)propyl]-3-(trifluoromethyl)-5,6-dihydro-4H-cyclopenta[c]pyrazol-4-ol], the pIC50 (HIF-2α [1]) was 6.00 to 7.00, the pIC50 (HIF-2α [2]) was 6.00 to 7.00 and the “Serum Shift (approximate)” value (HIF-2α [2]) was 2.
With `O[C@H]1c2c(C(F)(F)F)nn(CCCC(F)(F)F)c2[C@@H](F)C1(F)F` (single isomer, unassigned) [Example 123] the pIC50 (HIF-2α [1]) was 6.00 to 7.00, the pIC50 (HIF-2α [2]) was under 6.00 and the “Serum Shift (approximate)” value (HIF-2α [2]) was 12.
`O[C@H]1c2c(C(F)(F)F)nn([C@H]3C[C@@H](F)[C@@H](F)[C@@H](F)C3)c2CC1(F)F` (mixture of isomers) [Example 88, (4S)-5,5-difluoro-1-[(3R,5S)-3,4,5-trifluorocyclohexyl]-3-(trifluoromethyl)-4,6-dihydrocyclopenta[c]pyrazol-4-ol] was tested, and the pIC50 (HIF-2α [1]) was over 7.00, the pIC50 (HIF-2α [2]) was 6.00 to 7.00 and the “Serum Shift (approximate)” value (HIF-2α [2]) was 6.
In the case of `O[C@H]1c2c(C(F)(F)F)nn([C@H]3C[C@H](F)C[C@H](F)C3)c2CC1(F)F` [Example 71, (4S)-1-[(3R,5S)-3,5-difluorocyclohexyl]-5,5-difluoro-3-(trifluoromethyl)-4,6-dihydrocyclopenta[c]pyrazol-4-ol], the pIC50 (HIF-2α [1]) was over 7.00, the pIC50 (HIF-2α [2]) was under 6.00 and the “Serum Shift (approximate)” value (HIF-2α [2]) was 18.
With `O[C@H]1c2c(C(F)(F)F)nn(-c3ccc(C(F)(F)F)cc3)c2CC1(F)F` [Example 117, (4S)-5,5-difluoro-3-(trifluoromethyl)-1-[4-(trifluoromethyl)phenyl]-4,6-dihydrocyclopenta[c]pyrazol-4-ol] the pIC50 (HIF-2α [1]) was over 7.00, the pIC50 (HIF-2α [2]) was under 6.00 and the “Serum Shift (approximate)” value (HIF-2α [2]) was over 62.
With `C[C@H](OC(F)F)[C@H]1C[C@H](n2nc(C(F)(F)F)c3c2CC(F)(F)[C@H]3O)C1` [Example 106, (4S)-1-[3-[(1S)-1-(difluoromethoxy)ethyl]cyclobutyl]-5,5-difluoro-3-(trifluoromethyl)-4,6-dihydrocyclopenta[c]pyrazol-4-ol] the pIC50 (HIF-2α [1]) was 6.00 to 7.00, the pIC50 (HIF-2α [2]) was 6.00 to 7.00 and the “Serum Shift (approximate)” value (HIF-2α [2]) was 1.
In the case of `O[C@H]1c2c(C(F)(F)F)nn([C@H]3C[C@@H](COC(F)F)C3)c2CC1(F)F` [Example 103, (4S)-1-[3-(difluoromethoxymethyl)cyclobutyl]-5,5-difluoro-3-(trifluoromethyl)-4,6-dihydrocyclopenta[c]pyrazol-4-ol], the pIC50 (HIF-2α [1]) was under 6.00, the pIC50 (HIF-2α [2]) was under 6.00 and the “Serum Shift (approximate)” value (HIF-2α [2]) was 7.
For `O[C@H]1c2c(C(F)(F)F)nn([C@H]3CC[C@H](OC(F)F)C3)c2CC1(F)F` (racemic) [Example 110, (4S)-1-[(1R,3R)-3-(difluoromethoxy)cyclopentyl]-5,5-difluoro-3-(trifluoromethyl)-1H,4H,5H,6H-cyclopenta[c]pyrazol-4-ol and (4S)-1-[(1S,3S)-3-(difluoromethoxy)cyclopentyl]-5,5-difluoro-3-(trifluoromethyl)-1H,4H,5H,6H-cyclopenta[c]pyrazol-4-ol], the pIC50 (HIF-2α [1]) was over 7.00, the pIC50 (HIF-2α [2]) was under 6.00 and the “Serum Shift (approximate)” value (HIF-2α [2]) was 225.
With `O[C@H]1c2c(C(F)(F)F)nn([C@@H]3CC[C@@H](F)C[C@H]3F)c2CC1(F)F` (single isomer, unassigned) [97/98 DIAST-1] the pIC50 (HIF-2α [1]) was 6.00 to 7.00, the pIC50 (HIF-2α [2]) was under 6.00 and the “Serum Shift (approximate)” value (HIF-2α [2]) was 23.
`O[C@H]1c2c(C(F)(F)F)nn([C@H]3C[C@@H]4[C@H](C3)C4(F)F)c2CC1(F)F` (single isomer, unassigned) [125/126 DIAST-1] was tested, and the pIC50 (HIF-2α [1]) was 6.00 to 7.00, the pIC50 (HIF-2α [2]) was under 6.00 and the “Serum Shift (approximate)” value (HIF-2α [2]) was 9.
For `O[C@H]1c2c(C(F)(F)F)nn([C@H]3CCO[C@@H](C(F)(F)F)C3)c2CC1(F)F` (single isomer, unassigned) [94/95 DIAST-1], the pIC50 (HIF-2α [1]) was over 7.00, the pIC50 (HIF-2α [2]) was under 6.00 and the “Serum Shift (approximate)” value (HIF-2α [2]) was 17.
For `O[C@H]1c2c(C(F)(F)F)nn([C@@H]3C[C@@H](F)[C@@H](F)[C@@H](F)C3)c2[C@H](F)[C@H]1F` [Example 138, (4S,5S,6S)-5,6-difluoro-1-[(3R,5S)-3,4,5-trifluorocyclohexyl]-3-(trifluoromethyl)-5,6-dihydro-4H-cyclopenta[c]pyrazol-4-ol], the pIC50 (HIF-2α [1]) was over 7.00, the pIC50 (HIF-2α [2]) was under 6.00 and the “Serum Shift (approximate)” value (HIF-2α [2]) was 9.
`O[C@H]1c2c(C(F)(F)F)nn([C@H]3CC[C@H](F)CC3)c2CC1(F)F` [Example 96, (4S)-5,5-difluoro-1-(4-fluorocyclohexyl)-3-(trifluoromethyl)-4,6-dihydrocyclopenta[c]pyrazol-4-ol] was tested, and the pIC50 (HIF-2α [1]) was over 7.00, the pIC50 (HIF-2α [2]) was under 6.00 and the “Serum Shift (approximate)” value (HIF-2α [2]) was 7.
For `O[C@H]1c2c(C(F)(F)F)nn(CCC3CC3(F)F)c2[C@@H](F)[C@H]1F` (stereo partly drawn) [Example 152, (4S,5S,6R)-1-[2-(2,2-difluorocyclopropyl)ethyl]-5,6-difluoro-3-(trifluoromethyl)-5,6-dihydro-4H-cyclopenta[c]pyrazol-4-ol], the pIC50 (HIF-2α [1]) was 6.00 to 7.00, the pIC50 (HIF-2α [2]) was 6.00 to 7.00 and the “Serum Shift (approximate)” value (HIF-2α [2]) was 3.
In the case of `O[C@H]1c2c(C(F)(F)F)nn(CCc3ccsc3)c2CC1(F)F` [Example 76, (4S)-5,5-difluoro-1-(2-thiophen-3-ylethyl)-3-(trifluoromethyl)-4,6-dihydrocyclopenta[c]pyrazol-4-ol], the pIC50 (HIF-2α [1]) was 6.00 to 7.00, the pIC50 (HIF-2α [2]) was under 6.00 and the “Serum Shift (approximate)” value (HIF-2α [2]) was 17.
`O[C@H]1c2c(C(F)(F)F)nn(CCc3ccco3)c2CC1(F)F` [Example 77, (4S)-5,5-difluoro-1-[2-(furan-2-yl)ethyl]-3-(trifluoromethyl)-1H,4H,5H,6H-cyclopenta[c]pyrazol-4-ol] was tested, and the pIC50 (HIF-2α [1]) was over 7.00, the pIC50 (HIF-2α [2]) was under 6.00 and the “Serum Shift (approximate)” value (HIF-2α [2]) was 10.
In the case of `O[C@H]1c2c(C(F)(F)F)nn([C@@H]3CCC[C@H](C(F)(F)F)C3)c2CC1(F)F` [Example 82, (4S)-5,5-difluoro-3-(trifluoromethyl)-1-[(1R,3S)-3-(trifluoromethyl)cyclohexyl]-1H,4H,5H,6H-cyclopenta[c]pyrazol-4-ol], the pIC50 (HIF-2α [1]) was 6.00 to 7.00, the pIC50 (HIF-2α [2]) was under 6.00 and the “Serum Shift (approximate)” value (HIF-2α [2]) was 23.
